One may read the IC50 as the concentration that gives 50% inhibition.

Our source for the IC50 values is patent publication US10550080B2 (BRISTOL-MYERS SQUIBB COMPANY, priority 2016, dated 2020).

For data set [1], the target named is NaV1.7 (Homo sapiens (Human), UniProt Q15858). Description: Automated electrophysiology, IonWorks Barracuda population patch clamp, NaV1.7 current (inactivated-state protocol). The data set is classed as cell-based. The following applies: HEK 293 cells expressing NaV1.7; 600 sec compound incubation; read-out: NaV1.7 Barra IC50. How it is done:
(§1) Automated Electrophysiology: Ion Works Barracuda population patch clamp (PPC). PPC measurements were performed using an IonWorks Barracuda instrument (Molecular Devices Corporation, Union City, Calif.) using either PatchPlate™ PPC substrates (Molecular Devices Corporation) with 64 apertures per well. The ability to average currents from 64 recordings from each well greatly improves data consistency and recording success rates in the measurement of NaV1.7 mediated ionic currents. Calculated leak current was digitally subtracted from the total cell NaV1.7 current for each sample point acquired.
(§2) NaV1.7 currents were elicited by a voltage clamp protocol designed to bias the NaV1.7 channels to their inactivated state as follows. From holding potential of −60 mV cells were briefly hyperpolarized to −100 mV for 1.25 sec, then stepped to −20 mV for 20 sec to inactivate the channels. This was followed by a relatively brief hyperpolarization to −100 mv for 300 ms, then a 20 msec test pulse to −20 mV to elicit the NaV1.7 current used to measure the pharmacology of all test compounds. Compounds were incubated for 600 sec between the pre- and post-compound reads. The external recording solution used was (in mM) 137 NaCl, 4 KCl, 1 MgCl2, 1.8 CaCl2, 10 Hepes, 10 glucose, pH to 7.4 with NaOH, and the internal solution used was (in mM) 100 K-gluconate, 40 KCl, 3.2 zMgCl2, 5 EGTA, 10 HEPES pH to 7.2 with KOH. The same solutions were used to record NaV1.5 currents, with the following voltage clamp protocol. NaV1.5 currents were elicited by a voltage clamp protocol designed to bias the NaV1.5 channels to their inactivated state as follows. From holding potential of −40 mV cells were briefly hyperpolarized to −100 mV for 300 ms, then stepped to −10 mV for 20 sec to inactivate the channels. This was followed by a relatively brief hyperpolarization to −100 mv for 30 ms, then a 20 msec test pulse to −10 mV to elicit the NaV1.5 current used to measure the pharmacology of all test compounds.
(§3) HEK 293 cells expressing NaV1.7 and NaV1.5 channels, were used (Essen Biosciences, Ann Arbor, Mich.). Cells were cultured in T-175 flasks and passaged every 2 to 3 days at 1:3 to 1:6 seeding density dilutions. Cells were grown to 70% to 90% confluence in a flask and removed from the incubator (37° C., 5% CO2) 1 to 3 days after plating. Growth medium was aspirated from the culture flasks. Cells were gently rinsed with 10 ml of PBS (Catalog number: 14190144, Gibco) to remove residual media. Next a total of 2 mL TrypLE (Gibco) solution was added, and the flasks containing cells were sat for 3 min at RT, after which, the cells became visibly rounded and were easily dislodged from the bottom of the flask with a few brief taps on a solid surface. A total of 8 mL of media was added to the flask to inactivate the TrypLE, and the mixture was centrifuged at 910 rpm for 4 min. The cell supernatant was decanted, and the cell pellets were resuspended in 5-6 mL of external solution followed by gentle triturations using a 10 ml pipette, and transferred to a 15 ml conical tube and immediately brought to the IW Barracuda instrument.
(§4) Peak membrane currents were analyzed with IW Barracuda software and exported to Excel for further analysis. Concentration response curve fitting was performed with BMS in-house software. IC50 values were obtained by fits of the Hill equation to the average percent inhibition data plotted versus compound concentration. […] Results are reported in Table 1 (NaV1.7 Barra IC50 in nM and NaV1.5 Barra IC50 in nM).
A general note: The patch-clamp technique gives a direct electrical read-out from membranes.

The target in data set [2] is hNaV1.7 (Homo sapiens (Human), UniProt Q15858). Briefly: Ligand Binding Assay (LBA), radioligand displacement on hNaV1.7 HEK293 cell membranes. To be noted: 0.5 nM [3H] radioligand, 24 hours at room temperature; read-out: NaV1.7 LBA IC50. How it is done:
Ligand Binding Assay (LBA): hNaV1.7 binding affinities were determined with a filtration binding assay using purified membranes from HEK293 cells stably expressing hNaV1.7. HEK293 cells from a 10-stack cell culture flask (approximately 10^10 cells) were dissociated, frozen, and stored at −80° C. To prepare membranes, the frozen cell pellet was thawed and suspended in 6 ml hypotonic lysis buffer (50 mM HEPES, 0.1% mammalian protease inhibitor cocktail). 1 ml of resuspended cells was added to an additional 6 ml of lysis buffer and homogenized with 30 strokes of a tight pestle in a glass homogenizer. Homogenate was centrifuged at 1000×g for 10 minutes at 4° C. and the resulting supernatant was further centrifuged at 38,500×g for 60 minutes at 4° C. The resulting pellet was resuspended in binding buffer (50 mM HEPES, 130 mM NaCl, 5.4 mM KCl, 0.8 mM MgCl2, 5 mM glucose, pH 7.4) and needle homogenized with a 25 gauge needle. Protein concentration was determined with a BCA protein assay. Purified membranes were aliquoted, flash frozen in an ethyl alcohol dry ice bath, and stored at −80° C. To measure displacement of a radiolabeled ligand, 50 μg of purified hNaV1.7 HEK cell membranes were incubated with test compounds (eight concentrations, in duplicate) and 0.5 nM [3H] labeled radioligand in a 96 well plate for 24 hours at room temperature on a shaker. The total binding reaction volume was 250 μl, consisting of 200 μl purified hNaV1.7 HEK cell membranes, 25 μl test compound, and 25 μl radioligand. Non-specific binding was defined by 20 μM of a reference hNaV1.7 inhibitor. Binding reactions were terminated by filtration through GF/B filters presoaked in 0.5% polyethyleneamine. Filters were washed 5 times with 2 ml each of 4′C wash buffer (50 mM Tris-HCl, pH 7.4 at 4° C.). Bound radioactivity captured on the filters was counted on a liquid scintillation counter. Specific binding, expressed as % inhibition, was fit with Graphpad Prism software to determine binding IC50 values. Results are reported in Table 1 (NaV1.7 LBA IC50 in nM).

Data set [3] has as its target NaV1.5 (Homo sapiens (Human), UniProt Q14524). Briefly: Automated electrophysiology, IonWorks Barracuda population patch clamp, NaV1.5 current (inactivated-state protocol). The following applies: HEK 293 cells expressing NaV1.5; read-out: NaV1.5 Barra IC50. In kind it is cell-based. How it is done:
as §1, §2, §3, §4

Structures are written as SMILES.

NaV1.7, sequence (Q15858 whole entry): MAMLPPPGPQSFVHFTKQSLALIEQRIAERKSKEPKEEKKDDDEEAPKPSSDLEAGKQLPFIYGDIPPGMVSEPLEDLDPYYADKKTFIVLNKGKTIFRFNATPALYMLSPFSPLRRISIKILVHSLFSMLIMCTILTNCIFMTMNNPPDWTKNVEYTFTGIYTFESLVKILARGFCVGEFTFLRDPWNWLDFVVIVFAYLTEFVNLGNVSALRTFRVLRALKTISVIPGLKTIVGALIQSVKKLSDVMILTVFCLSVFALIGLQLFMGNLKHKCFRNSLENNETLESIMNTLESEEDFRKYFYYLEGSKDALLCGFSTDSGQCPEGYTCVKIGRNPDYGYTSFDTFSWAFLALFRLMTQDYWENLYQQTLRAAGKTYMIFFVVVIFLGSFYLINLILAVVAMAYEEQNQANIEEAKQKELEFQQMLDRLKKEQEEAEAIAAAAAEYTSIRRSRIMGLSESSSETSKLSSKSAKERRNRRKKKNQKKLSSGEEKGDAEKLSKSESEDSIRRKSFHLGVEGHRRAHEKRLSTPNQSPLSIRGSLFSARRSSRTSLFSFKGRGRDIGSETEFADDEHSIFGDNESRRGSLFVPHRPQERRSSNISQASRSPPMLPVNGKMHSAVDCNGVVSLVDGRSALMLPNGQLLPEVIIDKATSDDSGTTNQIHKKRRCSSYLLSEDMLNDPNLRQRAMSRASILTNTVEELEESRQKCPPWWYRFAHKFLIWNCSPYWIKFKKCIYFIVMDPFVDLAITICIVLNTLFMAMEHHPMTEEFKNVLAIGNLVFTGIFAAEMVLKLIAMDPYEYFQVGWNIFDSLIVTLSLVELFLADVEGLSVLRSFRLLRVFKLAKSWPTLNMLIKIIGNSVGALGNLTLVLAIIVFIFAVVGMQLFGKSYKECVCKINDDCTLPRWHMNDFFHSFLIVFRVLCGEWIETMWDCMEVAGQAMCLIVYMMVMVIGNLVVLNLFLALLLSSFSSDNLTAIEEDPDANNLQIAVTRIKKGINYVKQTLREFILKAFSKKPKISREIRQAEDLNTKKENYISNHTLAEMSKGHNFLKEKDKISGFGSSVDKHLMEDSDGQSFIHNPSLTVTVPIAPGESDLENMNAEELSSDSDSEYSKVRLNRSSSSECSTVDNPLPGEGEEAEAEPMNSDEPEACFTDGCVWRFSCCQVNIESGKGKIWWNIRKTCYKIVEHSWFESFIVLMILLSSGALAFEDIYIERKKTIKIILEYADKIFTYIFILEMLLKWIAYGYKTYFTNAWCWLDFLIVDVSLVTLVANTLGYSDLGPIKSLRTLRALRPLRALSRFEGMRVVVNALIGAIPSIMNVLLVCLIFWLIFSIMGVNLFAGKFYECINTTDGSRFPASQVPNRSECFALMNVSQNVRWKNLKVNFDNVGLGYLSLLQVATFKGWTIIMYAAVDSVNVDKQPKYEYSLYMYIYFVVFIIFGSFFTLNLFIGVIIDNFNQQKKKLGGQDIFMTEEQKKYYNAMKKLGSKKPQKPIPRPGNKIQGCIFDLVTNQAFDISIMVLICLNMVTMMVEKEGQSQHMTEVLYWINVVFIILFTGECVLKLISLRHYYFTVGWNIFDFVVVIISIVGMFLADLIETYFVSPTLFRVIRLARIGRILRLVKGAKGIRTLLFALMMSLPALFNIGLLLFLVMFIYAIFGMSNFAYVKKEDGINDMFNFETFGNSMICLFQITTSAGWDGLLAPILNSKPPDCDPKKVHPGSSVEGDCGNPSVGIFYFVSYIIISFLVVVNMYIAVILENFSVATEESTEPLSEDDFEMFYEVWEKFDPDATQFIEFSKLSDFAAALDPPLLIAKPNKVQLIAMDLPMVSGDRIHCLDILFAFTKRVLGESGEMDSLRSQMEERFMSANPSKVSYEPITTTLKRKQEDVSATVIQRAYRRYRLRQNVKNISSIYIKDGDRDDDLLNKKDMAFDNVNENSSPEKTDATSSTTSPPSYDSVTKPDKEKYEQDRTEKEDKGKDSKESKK
hNaV1.7, sequence (Q15858 whole entry): as above
NaV1.5, sequence (Q14524 whole entry): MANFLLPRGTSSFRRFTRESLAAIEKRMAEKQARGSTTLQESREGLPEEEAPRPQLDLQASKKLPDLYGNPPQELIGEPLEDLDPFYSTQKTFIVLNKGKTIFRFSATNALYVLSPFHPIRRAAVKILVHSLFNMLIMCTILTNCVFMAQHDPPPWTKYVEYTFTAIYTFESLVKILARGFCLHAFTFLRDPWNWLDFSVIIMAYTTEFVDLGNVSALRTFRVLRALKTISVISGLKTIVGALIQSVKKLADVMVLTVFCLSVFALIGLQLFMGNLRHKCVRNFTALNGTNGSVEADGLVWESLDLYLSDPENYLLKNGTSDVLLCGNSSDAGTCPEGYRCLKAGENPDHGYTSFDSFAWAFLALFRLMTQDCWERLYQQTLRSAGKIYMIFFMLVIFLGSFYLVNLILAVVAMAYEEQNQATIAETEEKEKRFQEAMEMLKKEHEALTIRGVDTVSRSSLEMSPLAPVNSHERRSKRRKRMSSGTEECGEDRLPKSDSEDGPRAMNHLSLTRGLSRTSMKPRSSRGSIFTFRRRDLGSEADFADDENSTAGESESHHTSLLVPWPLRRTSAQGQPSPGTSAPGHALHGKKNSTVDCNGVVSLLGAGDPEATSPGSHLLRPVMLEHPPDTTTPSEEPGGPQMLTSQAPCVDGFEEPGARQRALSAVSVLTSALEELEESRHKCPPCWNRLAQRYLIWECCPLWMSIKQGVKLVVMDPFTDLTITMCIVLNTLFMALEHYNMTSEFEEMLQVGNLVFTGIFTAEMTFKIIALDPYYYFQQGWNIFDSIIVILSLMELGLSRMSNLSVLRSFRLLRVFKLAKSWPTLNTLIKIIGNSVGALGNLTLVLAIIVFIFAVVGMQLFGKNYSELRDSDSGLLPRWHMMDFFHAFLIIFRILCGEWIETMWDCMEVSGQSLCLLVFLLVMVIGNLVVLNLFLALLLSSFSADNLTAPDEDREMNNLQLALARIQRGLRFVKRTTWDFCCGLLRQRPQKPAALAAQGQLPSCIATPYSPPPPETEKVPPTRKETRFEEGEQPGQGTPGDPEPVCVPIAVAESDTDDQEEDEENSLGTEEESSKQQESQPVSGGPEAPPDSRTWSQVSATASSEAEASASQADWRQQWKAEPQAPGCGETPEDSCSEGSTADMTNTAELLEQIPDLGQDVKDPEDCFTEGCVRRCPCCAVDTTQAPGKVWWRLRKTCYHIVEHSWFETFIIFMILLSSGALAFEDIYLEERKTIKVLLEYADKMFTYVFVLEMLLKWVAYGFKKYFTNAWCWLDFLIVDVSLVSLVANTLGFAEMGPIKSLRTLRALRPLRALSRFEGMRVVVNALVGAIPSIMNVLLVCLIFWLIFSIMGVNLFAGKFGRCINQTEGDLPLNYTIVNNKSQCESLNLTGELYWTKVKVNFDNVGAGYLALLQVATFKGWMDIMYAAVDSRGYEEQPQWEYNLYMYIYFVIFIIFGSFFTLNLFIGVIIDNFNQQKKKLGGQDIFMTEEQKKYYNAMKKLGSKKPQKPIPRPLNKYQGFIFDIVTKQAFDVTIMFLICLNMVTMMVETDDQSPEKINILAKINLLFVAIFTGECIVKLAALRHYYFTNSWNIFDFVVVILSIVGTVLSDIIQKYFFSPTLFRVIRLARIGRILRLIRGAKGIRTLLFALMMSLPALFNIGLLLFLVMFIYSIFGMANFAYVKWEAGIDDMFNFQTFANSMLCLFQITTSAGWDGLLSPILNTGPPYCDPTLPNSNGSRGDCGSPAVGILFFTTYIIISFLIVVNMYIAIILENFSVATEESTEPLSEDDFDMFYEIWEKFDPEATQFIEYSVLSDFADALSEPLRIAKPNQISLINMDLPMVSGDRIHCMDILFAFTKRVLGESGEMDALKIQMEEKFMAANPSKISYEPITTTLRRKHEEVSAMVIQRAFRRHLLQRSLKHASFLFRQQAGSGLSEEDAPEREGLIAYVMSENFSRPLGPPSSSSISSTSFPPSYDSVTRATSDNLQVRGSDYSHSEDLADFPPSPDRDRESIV

With `Cn1cc(-c2cnc(OCC3CC3)c(Cl)c2)c2ccc(C(=O)NS(=O)(=O)C3CC3)cc21` [Example 35, 3-(5-Chloro-6-(cyclopropylmethoxy)pyridin-3-yl)-N-(cyclopropylsulfonyl)-1-methyl-1H-indole-6-carboxamide], the figures for the IC50 in data set [1], in data set [2] and in data set [3] were 86 nM, 52 nM and 15100 nM, respectively.

For `CC(C)c1cccc(-c2cn(C)c3cc(C(=O)NS(C)(=O)=O)ccc23)c1` [Example 16, 3-(3-Isopropylphenyl)-1-methyl-N-(methylsulfonyl)-1H-indole-6-carboxamide], the figures for the IC50 in data set [1], in data set [2] and in data set [3] were 427 nM, 217 nM and > 30000 nM, respectively.

Regarding `Cn1cc(-c2ccc(C(F)(F)F)cc2Cl)c2ccc(C(=O)NS(C)(=O)=O)cc21` [Example 11, 3-(2-Chloro-4-(trifluoromethyl)phenyl)-1-methyl-N-(methylsulfonyl)-1H-indole-6-carboxamide], the concentration for half-maximal inhibition (IC50) in data set [1] worked out at 604 nM; in data set [2], 750 nM; in data set [3], 8640 nM.

Turning to `CCc1cccc(-c2cn(C)c3cc(C(=O)NS(C)(=O)=O)ccc23)c1` [Example 17, 3-(3-Ethylphenyl)-1-methyl-N-(methylsulfonyl)-1H-indole-6-carboxamide], the IC50 was 220 nM in data set [1], 440 nM in data set [2] and > 30000 nM in data set [3].

For `CC(C)COc1ncc(-c2cn(C)c3cc(C(=O)NS(=O)(=O)C(C)(C)C)ccc23)cc1Cl` [Example 38, N-(tert-butylsulfonyl)-3-(5-chloro-6-isobutoxypyridin-3-yl)-1-methyl-1H-indole-6-carboxamide], the IC50 is 1300 nM in data set [1], 156 nM in data set [2] and 21900 nM in data set [3].

`Cn1cc(-c2ccc(C(F)F)cc2)c2ccc(C(=O)NS(C)(=O)=O)cc21` [Example 30, 3-(4-(Difluoromethyl)phenyl)-1-methyl-N-(methylsulfonyl)-1H-indole-6-carboxamide]: the IC50 is 262 nM in data set [1], 1010 nM in data set [2] and > 30000 nM in data set [3].

`Cn1cc(-c2cnc(OCC3CC3)c(Cl)c2)c2ccc(C(=O)NS(C)(=O)=O)cc21` [Example 34, 3-(5-Chloro-6-(cyclopropylmethoxy)pyridin-3-yl)-1-methyl-N-(methylsulfonyl)-1H-indole-6-carboxamide]: the IC50 in data set [1] is 189 nM; in data set [2] it was 270 nM; in data set [3], 8370 nM.

On to `Cn1cc(-c2ccc(C(F)(F)F)cc2)c2ccc(C(=O)NS(=O)(=O)c3cccs3)cc21` [Example 20, 1-Methyl-N-(thiophen-2-ylsulfonyl)-3-(4-(trifluoromethyl)phenyl)-1H-indole-6-carboxamide], for which the results for the IC50 in data set [1], in data set [2] and in data set [3] were 419 nM, 361 nM and 3860 nM, respectively.

As to `COc1ncccc1-c1cn(C)c2cc(C(=O)NS(C)(=O)=O)ccc12` [Example 6, 3-(2-Methoxypyridin-3-yl)-1-methyl-N-(methylsulfonyl)-1H-indole-6-carboxamide], the IC50 in data set [1], in data set [2] and in data set [3] was > 30000 nM throughout.

Consider `CC(C)COc1ncc(-c2cn(C)c3cc(C(=O)NS(C)(=O)=O)ccc23)cc1Cl` [Example 2, 3-(5-Chloro-6-isobutoxypyridin-3-yl)-1-methyl-N-(methylsulfonyl)-1H-indole-6-carboxamide], for which the results for the 50% inhibitory concentration (IC50) in data set [1], in data set [2] and in data set [3] were 90 nM, 91 nM and 18300 nM, respectively.

For `Cn1cc(-c2ccc(C(F)(F)F)cc2)c2ccc(C(=O)NS(=O)(=O)C(F)(F)F)cc21` [Example 19, 1-Methyl-3-(4-(trifluoromethyl)phenyl)-N-((trifluoromethyl)sulfonyl)-1H-indole-6-carboxamide], the IC50 in data set [1] is 812 nM; in data set [2], 1080 nM; in data set [3] it was 7480 nM.

`CC(C)COc1ncc(-c2cn(C)c3cc(C(=O)NS(=O)(=O)C4CC4)ccc23)cc1Cl` [Example 24, 3-(5-Chloro-6-isobutoxypyridin-3-yl)-N-(cyclopropylsulfonyl)-1-methyl-1H-indole-6-carboxamide]: the 50% inhibitory concentration (IC50) in data set [1] worked out at 294 nM; in data set [2] it was 22 nM; in data set [3], 12000 nM.
